Assay results taken from US11666551B2, “Agent for reducing amount of amyloid β protein” (FUJIFILM Toyama Chemical Co., Ltd., priority 2017, dated 2023).

Experiments:
Type in all cases: in vivo, mild to moderate AD patients
Aβ-42 = experiment: Phase II placebo-controlled trial, cerebrospinal fluid biomarker Aβ-42; conditions: for Change in Aβ-42 in CSF at week 52, difference from placebo group: analysis of covariance
Excerpt: (§1) Maleate of Compound A was used as the test compound. • Test Example 1 Multicenter randomized double-blind phase II placebo-controlled trial for assessing effectiveness and safety of Compound A in mild to moderate AD patients Subject (selection criteria): Patients were screened in a period from 42 days before treatment assignment to the assignment based on the following selection criteria. • Patients who were probable AD and are 55 years old or older and 85 years old or younger at the time of obtaining consent of screening. • Patients with an MMSE score of 12 to 22 at the time of screening • Patients with a Modified Hachinski Ischemia Scale score of 4 or less • Patients who have been treated with a donepezil hydrochloride or rivastigmine transdermal system for at least 4 months before the baseline and with a stable dose thereof for 3 months before the baseline. • In the case of patients who have received memantine in addition to being treated with a donepezil hydrochloride or rivastigmine transdermal system, patients who have been treated with memantine for at least 4 months before the baseline and with a stable dose thereof for 3 months before the baseline. • Patients whose brain MRI or CT results match AD at the time of screening • Organization of groups: Patients matched (484 patients) were randomly divided into the following 3 groups and the trial was started. • (1) High dose group: 224 mg of a test compound (160 mg in terms of Compound A) was orally administered once a day for 4 weeks and then 448 mg of a test compound (320 mg in terms of Compound A) was orally administered once a day for 48 weeks (158 patients) • (2) Low dose group: 224 mg of a test compound (160 mg in terms of Compound A) was orally administered once a day for 52 weeks (166 patients) • (3) Placebo group: placebo was orally administered once a day for 52 weeks (158 patients) Method of assessment: Cerebrospinal Fluid Biomarker
(§2) Cerebrospinal fluid was collected by lumber puncture from subjects at baseline (within 2 weeks before the first day of administration of investigational drug) and after 52 weeks (within 2 weeks before week 52), and divided into 9-ml aliquots in polyethylene tubes and stored at −80° C. The AP-42 value in the cerebrospinal fluid was measured by sandwich ELIZA which has been designed for measurement of Aβ including 1 amino acid and 42 amino acids.
(§3) Change in cerebrospinal fluid (CSF) biomarkers at week 52 from the baseline was compared by analysis of covariance between a high dose group and a placebo group, and between a low dose group and the placebo group. For models, the baseline of cerebrospinal fluid (CSF) biomarkers was included as a covariate and the significance level was 5%.

Aβ-38 = experiment: Phase II placebo-controlled trial, cerebrospinal fluid biomarker Aβ-38; conditions: for Change in Aβ-38 in CSF at week 52, difference from placebo group: analysis of covariance
Excerpt: [The procedure below names another target; the source lists this target under the same test.] as §1, §2, §3

Aβ = experiment: Phase II placebo-controlled trial, concentration of Aβ in the cerebrospinal fluid (overall statement); conditions: Compound A groups (high and low dose) vs placebo group
Protocol: […]
as §2, with “acids. […]” for “acids.”

Aβ-40 = experiment: Phase II placebo-controlled trial, cerebrospinal fluid biomarker Aβ-40; conditions: for Change in Aβ-40 in CSF at week 52, difference from placebo group: analysis of covariance
Excerpt: [The procedure below names another target; the source lists this target under the same test.] as §1, §2, §3

[1] = High dose group (160 mg then 320 mg in terms of Compound A, oral, once a day)
[2] = High dose group: 160 mg in terms of Compound A orally once a day for 4 weeks, then 320 mg for 48 weeks, 24 cases
[3] = Low dose group (160 mg in terms of Compound A, oral, once a day, 52 weeks)
[4] = Low dose group: 160 mg in terms of Compound A orally once a day for 52 weeks, 17 cases

OC1CN(CCCOCCc2ccc3sccc3c2)C1 [Compound A, 1-(3-(2-(1-benzothiophen-5-yl)ethoxy)propyl)azetidin-3-ol]
Change in Aβ-42 in CSF at week 52, difference from placebo group (Aβ-42; [1]): 32.90 pg/mL | Change in concentration of Aβ-42 in CSF at week 52 from the baseline, least square means (Aβ-42; [2]): 11.55 pg/mL | Change in Aβ-42 in CSF at week 52, difference from placebo group (Aβ-42; [3]): 11.65 pg/mL | Change in concentration of Aβ-42 in CSF at week 52 from the baseline, least square means (Aβ-42; [4]): -9.70 pg/mL | Change in Aβ-38 in CSF at week 52, difference from placebo group (Aβ-38; [1]): 525.66 pg/mL | Change in concentration of Aβ-38 in CSF at week 52 from the baseline, least square means (Aβ-38; [2]): 178.64 pg/mL | Change in Aβ-38 in CSF at week 52, difference from placebo group (Aβ-38; [3]): 127.43 pg/mL | Change in concentration of Aβ-38 in CSF at week 52 from the baseline, least square means (Aβ-38; [4]): -219.58 pg/mL | Change in the concentration of Aβ in the cerebrospinal fluid at week 52 from the baseline, compared to the placebo group (Aβ): tended to be increased in a dose dependent manner | Change in Aβ-40 in CSF at week 52, difference from placebo group (Aβ-40; [1]): 1206.87 pg/mL | Change in concentration of Aβ-40 in CSF at week 52 from the baseline, least square means (Aβ-40; [2]): 290.84 pg/mL | Change in Aβ-40 in CSF at week 52, difference from placebo group (Aβ-40; [3]): 75.71 pg/mL | Change in concentration of Aβ-40 in CSF at week 52 from the baseline, least square means (Aβ-40; [4]): -840.32 pg/mL
